Results on 3 compounds are retold here after US4562205A, “Derivatives of 2-aminoacetic acid” (Continental Pharma Inc., priority 1983, dated 1985).

The test system of data set [1] is convulsions induced by bicuculline in mice. Put plainly: Anti-convulsant activity against bicuculline-induced convulsions (protection against tonic extension). The class given is in vivo, mice (CDl-Charles River). The following applies: for potency compared with reference (in words): ED50 comparison, bicuculline test; for ED50: Mus musculus, 3 h, read-out: ED50 (dose providing protection against tonic extension of 50% of the animals); for % of protection (against tonic extension): 10 mg/kg, 20 mice. As for the experimental part:
The compounds tested, 2-pentanoylaminoacetic acid (compound I), sodium 2-pentanoylaminoacetate (compound II) or sodium valproate (a generally accepted reference substance), have been administered orally to 20 mice (CDl-Charles River) at a dose of 10 mg/kg as a suspension in a 1% tragacanth gum mucilage. Administration has been done by means of an intragastric tube.
Three hours later, bicuculline has been administered at a dose of 0,7 mg/kg by intravenous injection in the lateral vein of the tail.
The anti-convulsant activity of the compounds has been further evaluated, using the technique described hereinabove, by examining the effect at different doses. From the experimental data, the ED50 value has been calculated, i.e. the effective dose (mg/kg) providing protection against tonic extension of 50% of the animals.

Data set [2] concerns mice. Put plainly: in vivo. Particulars: mice; for deaths: 3000 mg/kg per os. The source says:
(§1) In further pharmacological tests the acute toxicity and the effect on behaviour have been examined. The effect on behaviour has been studied using a method derived from the one of S. Irvin [Gordon Res. Conf. on Medicinal Chemistry, p. 1933 (1959) as cited by R. A. Turner (Screening Methods in Pharmacology, Acad. Press, 1965, Chapter III, pages 22-34)].
(§2) No further testing has been made when a dose has been reached at which no abnormal behaviour or toxicity has been observed. […] The deaths were registered for 14 days following the treatment.
(§3) The LD50 value, i.e. the dose expressed in mg/kg which is lethal for 50% of the animals, has been calculated according to the Litchfield and Wilcoxon method [J. Pharmacol. Exp. Ther., 96, 99 (1949)].

Data set [3] is described as follows: in vivo. Particulars: mouse, in vivo, po.
Text: as §1, §2, §3

Data set [4] has as its system mice. Description: in vivo. Particulars: oral, mice.
Text: as §1, §2

Data set [5] can be described thus: in vivo. The following applies: mouse, in vivo, po.
Text: as §1, §2
This is another data set of the same source.

[6] abbreviates: oral, bicuculline 0,7 mg/kg i.v. three hours later.
Setting [7] is: oral, different doses, bicuculline 0,7 mg/kg i.v. three hours later, mice.

Read-outs that look alike come from different tables or passages of the source. Where only a bound is given, the exact number is not on record here.

In general, ED50 refers to the dose at which the effect has come halfway, by size or by number of responders. The LD50 is the dose at which mortality reaches 50%. High values mean a less toxic substance, low ones a more toxic substance. `CCCCC(=O)NCC(=O)[O-].[Na+]`: the “potency compared with reference (in words)” value in data set [1] (mice) is listed as “more potent”. The ED50 in data set [1] (po) worked out at 9.2 mg/kg. In addition, in data set [1] (setting [6]), the “% of protection (against tonic extension)” value (“% of protection” for short) is listed as 55%. In addition, in the data set with mice [2], the deaths result is on record as “no deaths”. Besides, the “TI-A (LD50/ED50)” value in the data set on mice [2] (therapeutical index, oral) was greater than 326. The compound also showed an LD50 at 336 h in “in vivo [3]” greater than 3000 mg/kg. For the same compound, the “toxicity and effect on behaviour (in words)” value with mice [4] was “very weak”. Also, the “TI-B (MTD/ED50)” value in the data set with mice [4] (therapeutical index) is listed as greater than 326. Further, the MTD at 336 h in the data set “in vivo [5]” is no less than 3000 mg/kg.
Regarding `CCCCC(=O)NCC(=O)O` [compound I, 2-pentanoylaminoacetic acid], the “potency compared with reference (in words)” value in data set [1] (mice) was “more potent”. Further, in data set [1] (setting [7]), the ED50 worked out at 10.7 mg/kg. In addition, the “anti-convulsant activity (in words)” value in data set [1] (convulsions induced by bicuculline in mice) is reported as “potent anti-convulsant activity”. Further, the “% of protection” value in data set [1] (setting [6]) is 55%. Also, the deaths result in the data set with mice [2] was “no deaths”. Moreover, the LD50 at 336 h in “in vivo [3]” was greater than 3000 mg/kg. For the same compound, the “toxicity and effect on behaviour (in words)” value in the data set with mice [4] was “very weak”. The compound also showed an MTD at 336 h in “in vivo [5]” of no less than 3000 mg/kg. In addition, the selectivity ratio in “in vivo [5]” (TI-B (MTD/ED50), therapeutical index, mice) was greater than 280.
For `CCCC(CCC)C(=O)[O-].[Na+]` [sodium valproate, reference compound], the ED50 in data set [1] (setting [7]) was determined as 29 mg/kg. In addition, the “% of protection” value in data set [1] (setting [6]) is 40%.
